Results as given in patent publication US8883798B2, “Pyrimidine compounds inhibiting the formation of nitric oxide and prostaglandin E2, method of production thereof and use thereof” (Ustav Organicke Chemie a Biochemie Akademie Ved CR, V.V.I., priority 2011, dated 2014).

How the values were obtained:
[1] = test system: production of prostaglandin E2 (PGE2); test: Production of prostaglandin E2 (PGE2) in cultures of mouse peritoneal cells stimulated with LPS (ELISA kit); type: cell-based, mice; conditions: for Production of prostaglandins IC50 (μmol · 1^−1) average value and range of values: Table 3B, 6 h; for Production of prostaglandins in % of the controls: Table 3A, substance 50 μmol·l^−1, 6 h
Experimental: (§1) Under in vitro conditions, the effect of the pyrimidine compounds according to this invention was tested in terms of the production of nitric oxide (NO) and in terms of the production of prostaglandin E2 (PGE2) in cultures of the peritoneal cells of mice.
The influence on the production of prostaglandin E2 (PGE2) in vitro caused by the activity of the pyrimidine compounds according to the submitted invention was determined in cultures of the peritoneal cells of mice using a commercial kit (R&DSystems). The concentrations of PGE2 after lipopolysacharide (LPS) stimulation reached in the individual experiments values in a range of 22 to 91 ng·ml^−1 and for the purposes of comparison between the experiments were considered as 100%. The influence of the substances on the production of PGE2 was evaluated in percentage with respect to the control values.
(§2) Experiments were performed on mice peritoneal cells C57BL/6 (Charles River, Germany—AnLabu).
(§3) NO production was induced using IFN-g (5000 pg/mL) plus LPS (100 pg/mL); evaluated (Griess reagent) after 24 h of the cell cultivation (2×10^6/mL). PGE2 was induced using LPS (10 ng/mL); evaluated (ELISA) following 6 h cultivation of cells (3×10^6/mL). Cell longevity was evaluated using WST-1 (tetrazolium salt), following 24 h cultivation of cells (1×10^6/mL). The values mentioned in the table represent the effects of the substances tested in a concentration of 50 μmol·l^−1.

[2] = test system: peritoneal cells of mice; test: Cell viability of mouse peritoneal cells (WST-1 kit); type: cell-based; conditions: substance 50 μmol·l^−1, 24 h; for Cell viabilities in % of the controls: Table 3B; for Cell viability in % of the controls: Table 3A
Experimental: Cell viability was determined in the standard way using a WST-1 kit (Roche). The values of the viability of the control cells were for the purposes of comparison between experiments considered as 100%. The influence of the substances on the longevity of the cells was evaluated in percentage with respect to the control values.
as §2, §3

[3] = test system: production of nitric oxide (NO); test: Production of nitric oxide (NO) in cultures of mouse peritoneal cells stimulated with IFN-γ plus LPS (Griess reagent); type: cell-based, mice; conditions: substance 50 μmol·l^−1, IFN-g plus LPS, 24 h
Experimental: as §1
NO is a product of the metabolism of L-arginine, quickly changes to […], which are then measured using the Griess reagent system. Under normal conditions, the production of NO is practically zero. It only occurs after some stimulation. In these experiments, interferon-gamma (IFN-γ) and bacterial lipopolysacharide (LPS) were used as stimulators. The values of NO induced in this way fluctuated in the individual experiments in a range from 52 to 89 μmol·l^−1; for the purposes of comparison between the experiments they were considered as 100%. The production of NO after the application of the substances was expressed in percentage with respect to the control values. (The lower the value, the higher the inhibition effect of the substances on NO production.) IC50 are the concentrations of the substances reducing the production of NO by 50% with respect to the controls.
as §2, §3

Production of prostaglandins IC50 (μmol · 1^−1) average value and range of values [1]	Structure (SMILES)	Cell viabilities in % of the controls [2]	Production of nitric oxide in % of the controls ([3]; Table 3B)	Production of prostaglandins in % of the controls [1]	Cell viability in % of the controls [2]	Production of nitric oxide in % of the controls ([3]; Table 3A)
26.35 ± 10.89; n = 4 μmol · 1^−1	CCCCc1c(Cl)nc(S)nc1Cl [Substance 149]	99.14 ± 6.73; n = 8 % of the controls	24.12 ± 11.22; n = 6 % of the controls	–	–	–
0.28 ± 0.23; n = 4 μmol · 1^−1	CCCCc1c(Cl)nc(NCc2ccccc2)nc1Cl [Substance 145]	147.31 ± 4.88; n = 8 % of the controls	93.01 ± 9.25; n = 6 % of the controls	–	–	–
35.10 ± 14.56; n = 4 μmol · 1^−1	CCCCc1c(-c2ccoc2)nc(N)nc1-c1cc2ccccc2o1 [Substance 123]	42.62 ± 11.49; n = 12 % of the controls	11.15 ± 2.99; n = 6 % of the controls	–	–	–
34.2 ± 8.01; n = 4 μmol · 1^−1	CCCCc1c(-c2cccc3ccccc23)nc(N)nc1-c1cccc2ccccc12 [Substance 141]	107.73 ± 5.36; n = 8 % of the controls	57.66 ± 6.53; n = 6 % of the controls	–	–	–
77.50 ± 16.19; n = 4 μmol · 1^−1	CCCCc1c(Cl)nc(Sc2ccccc2)nc1Cl [Substance 148]	90.49 ± 4.62; n = 12 % of the controls	61.85 ± 10.25; =10 % of the controls	–	–	–
62.48 ± 5.45; n = 2 μmol · 1^−1	CCCCc1c(-c2ccsc2)nc(N)nc1-c1cc2ccccc2o1 [Substance 124]	94.41 ± 9.01; n = 8 % of the controls	33.45 ± 13.04; n = 6 % of the controls	–	–	–
85.94 ± 12.69; n = 4 μmol · 1^−1	CCCCc1c(Cl)nc(NC2CC2)nc1Cl [Substance 143]	104.31 ± 8.28; n = 8 % of the controls	78.33 ± 13.82; n = 6 % of the controls	–	–	–
83.56 ± 5.83; n = 4 μmol · 1^−1	CCCCc1c(-c2ccco2)nc(N)nc1-c1cc2ccccc2s1 [Substance 131]	98.88 ± 1.65; n = 8 % of the controls	49.76 ± 4.85; n = 4 % of the controls	–	–	–
65.97 ± 25.34; n = 2 μmol · 1^−1	CCCCc1c(-c2ccncc2)nc(N)nc1-c1cc2ccccc2s1 [Substance 129]	85.12 ± 0.76; n = 8 % of the controls	63.94 ± 1.84 n = 4 % of the controls	–	–	–

The remaining lines, values behind:

Structure (SMILES)	Production of prostaglandins IC50 (μmol · 1^−1) average value and range of values [1]	Cell viabilities in % of the controls [2]	Production of nitric oxide in % of the controls ([3]; Table 3B)	Production of prostaglandins in % of the controls [1]	Cell viability in % of the controls [2]	Production of nitric oxide in % of the controls ([3]; Table 3A)
CCCCc1c(-c2ccc(OC)cc2)nc(N)nc1-c1ccsc1 [Substance 109]	4.9 ± 1.72; n = 4 μmol · 1^−1	120.58 ± 7.53; n = 8 % of the controls	73.38 ± 4.58; n = 6 % of the controls	–	–	–
Cc1c(Cl)nc(N=CN(C)C)nc1Cl [Substance 13]	–	–	–	59.98 ± 1.82 % of the controls	77.29 ± 3.69 % of the controls	21.39 ± 4.78 % of the controls
C=CCc1c(Cl)nc(N)nc1Cl [Substance 32]	–	–	–	90.81 ± 5.95 % of the controls	93.55 ± 19.55 % of the controls	41.72 ± 9.27 % of the controls
CCCCc1c(-c2ccc(OC)cc2)nc(N)nc1-c1ccoc1 [Substance 104]	57.52 ± 12.44; n = 6 μmol · 1^−1	137.10 ± 2.72; n = 12 % of the controls	71.20 ± 2.85; n = 6 % of the controls	–	–	–
C#CCc1c(Cl)nc(N=CN(C)C)nc1Cl [Substance 18]	–	–	–	78.55 ± 0.38 % of the controls	67.89 ± 7.41 % of the controls	0.90 ± 0.22 % of the controls
CCCCc1c(-c2ccc(F)cc2)nc(N)nc1-c1cccnc1 [Substance 79]	47.26 ± 5.67; n = 2 μmol · 1^−1	104.50 ± 6.37; n = 8 % of the controls	62.58 ± 2.32; n = 6 % of the controls	–	–	–
CCCCc1c(-c2cccs2)nc(N)nc1-c1cccs1 [Substance 92]	29.52 ± 11.77; n = 4 μmol · 1^−1	102.36 ± 6.45; n = 8 % of the controls	46.09 ± 7.92; n = 6 % of the controls	–	–	–
CCCCc1c(-c2ccncc2)nc(N)nc1-c1cccs1 [Substance 91]	29.01 ± 5.46; n = 4 μmol · 1^−1	81.38 ± 6.86; n = 4 % of the controls	63.95 ± 2.00; n = 4 % of the controls	–	–	–
CCCCc1c(-c2cccnc2)nc(N)nc1-c1ccsc1 [Substance 110]	64.72 ± 14.00; n = 2 μmol · 1^−1	90.73 ± 10.89; n = 4 % of the controls	62.00 ± 2.93; n = 4 % of the controls	–	–	–
CCc1c(Cl)nc(N=CN(C)C)nc1Cl [Substance 14]	–	–	–	30.40 ± 0.80 % of the controls	162.93 ± 14.68 % of the controls	23.24 ± 6.78 % of the controls
CCCCc1c(-c2ccc(OC)cc2)nc(N)nc1-c1ccc(OC)cc1 [Substance 74]	38.22 ± 5.59; n = 2 μmol · 1^−1	98.75 ± 5.63; n = 12 % of the controls	86.27 ± 4.16; n = 4 % of the controls	–	–	–
CCCCc1c(-c2ccccc2)nc(N)nc1-c1ccc(OC)cc1 [Substance 72]	3.61 ± 0.22; n = 4 μmol · 1^−1	108.35 ± 5.66; n = 8 % of the controls	55.45 ± 12.92; n = 6 % of the controls	–	–	–
O=CNc1nc(Cl)c(-c2ccccc2)c(Cl)n1 [Substance 56]	–	–	–	46.40 ± 0.28 % of the controls	48.49 ± 4.44 % of the controls	0.80 ± 0.37 % of the controls
CCCCc1c(-c2ccccc2)nc(N)nc1-c1ccoc1 [Substance 102]	54.8 ± 10.70; n = 6 μmol · 1^−1	110.35 ± 5.69; n = 8 % of the controls	68.34 ± 4.63; n = 6 % of the controls	–	–	–
CCCCc1c(-c2ccccc2)nc(N)nc1-c1ccco1 [Substance 94]	38.84 ± 15.99; n = 4 μmol · 1^−1	104.21 ± 14.38; n = 8 % of the controls	39.73 ± 5.57; n = 6 % of the controls	–	–	–
C=CCc1c(Cl)nc(N=CN(C)C)nc1Cl [Substance 17]	–	–	–	15.72 ± 0.46 % of the controls	136.13 ± 11.32 % of the controls	6.2 ± 0.91 % of the controls
CCc1c(Cl)nc(NC=O)nc1Cl [Substance 49]	–	–	–	20.58 ± 2.13 % of the controls	111.37 ± 10.44 % of the controls	5.76 ± 2.48 % of the controls
C=CCc1c(Cl)nc(NC=O)nc1Cl [Substance 57]	–	–	–	16.42 ± 0.64 % of the controls	95.37 ± 15.40 % of the controls	1.21 ± 0.28 % of the controls
CCCCc1c(-c2ccsc2)nc(N)nc1-c1ccco1 [Substance 112]	55.24 ± 7.98; n = 4 μmol · 1^−1	92.77 ± 7.75; n = 12 % of the controls	47.96 ± 4.90; n = 6 % of the controls	–	–	–
